Converted amounts (≈) assume the structure as drawn. Numbered stars: 1 amine (or outer) side, 2 acyl side, 3 side chain; on linkers, the order of the positions; unused ones are H or OH. Bridge positions count the residues as written; N and C are the ends. Square brackets hold non-standard residues; d marks the D form. Peptide text beside a SMILES is read from it. * marks the point of attachment. Phe(3-Me) = Cc1cccc(C[C@H](N)C(=O)O)c1; Pro(4R-Me) = C[C@H]1CN[C@H](C(=O)O)C1; Hyp = O=C(O)[C@@H]1C[C@@H](O)CN1; NH(4-F-phenyl) = Fc1ccc(N*)cc1; aThr = C[C@H](O)[C@H](N)C(=O)O; NH(2-F-phenyl) = Fc1ccccc1N*; Pip = O=C(O)[C@@H]1CCCCN1; X7 = Clc1ccc(N*)c(Cl)c1; CO = O=C([*:1])[*:2]
What was measured:
S. aureus ΔClpP = test: Minimal inhibitory concentration, microbroth dilution; assay type: cell-based, Staphylococcus aureus; settings: MIC; ClpP inactivated
Experimental: (§1) Minimal inhibitory concentrations (“MICs”) were determined using the microbroth dilution method according to Clinical Laboratory Standards Institute (CLSI; National, C.F. C. L. S., Methods for Dilution Antimicrobial Susceptibility Tests for Bacteria Grow aerobically-Seventh Edition: Approved Standard M7-A7, CLSI, Wayne, Pa., USA, 2008) and were read by visual inspection. Two fold serial dilutions of test compound in 100 μL of the appropriate broth media were first prepared in 96-well round bottom microtiter plates (Nalgene Nunc International, Rochester, N.Y., USA). An equivalent volume (100 μL) of bacterial broth inocula containing approximately 10^5 bacterial cfu/mL was added to each well to give final concentrations of test compound starting at 200 μM. The plates were then incubated aerobically at 37° C. All strains were incubated overnight. After incubations, in all cases the MIC was recorded as the lowest concentration of drug that prevented bacterial growth. The bacterial strains for which MIC was determined as described in Table 4.

E. faecails = test: as above; assay type: cell-based; settings: Enterococcus faecalis, read-out: Minimal Inhibitory Concentrations (μM) E. faecails, MIC
Experimental: as §1

MRSA NRS70 = test: as above; assay type: cell-based; settings: Staphylococcus aureus, read-out: Minimal Inhibitory Concentrations (μM) MRSA NRS70, MIC
Experimental: as §1

S. aureus ATCC 29213 = test: as above; assay type: cell-based; settings: Staphylococcus aureus, ATCC29213, read-out: Minimal Inhibitory Concentrations (μM) S. aureus ATCC 29213, MIC
Experimental: as §1

S. aureus USA 300 = test: as above; assay type: cell-based; settings: Staphylococcus aureus, USA300, read-out: Minimal Inhibitory Concentrations (μM) S. aureus USA 300, MIC
Experimental: as §1

S. aureus ClpP (Sa-ClpP) = target: T1, S. aureus ClpP (Sa-ClpP) (Staphylococcus aureus, UniProt Q2G036); test: Casein-BODIPY digestion assay (ClpP activation); assay type: biochemical
T1 construct: made in house; host or cells: E. coli BL21 (DE3)
T1 sequence (Q2G036 whole entry): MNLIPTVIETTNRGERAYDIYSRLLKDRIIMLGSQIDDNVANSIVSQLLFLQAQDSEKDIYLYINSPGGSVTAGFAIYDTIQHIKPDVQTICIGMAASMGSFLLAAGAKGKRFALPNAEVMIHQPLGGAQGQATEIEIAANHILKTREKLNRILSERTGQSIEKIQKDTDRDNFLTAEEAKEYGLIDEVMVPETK
Experimental: The compounds were assayed in a casein digestion assay in order to determine their effect on ClpP activation. Briefly, the assay was carried out using S. aureus ClpP (“Sa-ClpP”) overexpressed in E. coli BL21 (DE3) and purified in a two-step process. Purity of the protein was assessed through SDS PAGE analysis. EC50 evaluations were conducted in triplicate in a 20 μl assay format using a method adapted from Maurizi et al. (Methods Enzymol. (1994) 244:314-331). Each well contained 10 μM saClpP, 25 μg/ml BODIPY FL casein (Invitrogen Corporation, San Diego, Calif.), and test compound in concentrations ranging between 0-1000 μM in assay buffer (50 mM Tris pH 8, 200 mM KCl, and 1 mM TCEP). The reaction took place at 37° C. Fluorescence (excitation 485 nm; emission 528 nm) was measured in five minute intervals over a 45 min period using a BioTek HT fluorescence microplate reader (BioTek Instruments, Inc., Winooski, Vt.). Velocity of each reaction was calculated and data was fit to a dose response curve using GraphPad Prism® software (GraphPad Software, Inc., La Jolla, Calif.). EC50 is the effective concentration of compound which causes 50% activation of S. aureus ClpP in the foregoing BODIPY FL casein assay.
Alternatively, the assay was carried out using EnzCheck Protease Assay (Molecular Probes, Catalog # E6638). The assay was performed in black 384 well, flat bottom, low volume plates (Greiner Bio-One, Monroe, N.C., catalog #784076). 10 μL of Tris.HCl buffer, pH 8.0 with 0.01% Triton X-100 was pipetted into each well using a Well-Mate (Thermo Scientific, Waltham, Mass.). 0.4 μL test compounds or controls (2% DMSO v/v) were added to each well using a Biomek FX liquid handling robot (Beckman Coulter, Indianapolis, Ind.). After addition of test compounds and controls, 10 μL of master mix containing 2 μM Sa-ClpP and 2 μM substrate (Bodipy-FL labeled casein) in Tris.HCl buffer, pH 8.0 with 0.01% (v/v) Triton X-100, was pipetted into each well. All assays were performed in triplicate, under linear velocity conditions. Increase in fluorescent signal following activation of Sa-ClpP by test compounds and controls was measured over time period of 30 mins using filters with excitation at 485±15 nm and emission at 520±25 nm on a PHERAstar FS Multilabel reader (BMG, Cary, N.C.). Instrument gains and enzyme linear velocity conditions were determined and validated using ADEP4, a known Sa-ClpP activator. Data analysis was done by measuring rate of casein degradation over time (slopes). Computed degradation rates (slopes) were normalized to positive (ADEP4) or negative (DMSO) controls. Using nonlinear regression curve fitting EC50 values and % activation were determined using the equation “log [agonist] vs. Response-variable slope (four parameters)-symmetrical” in the program Prism 6 (GraphPad Software, La Jolla, Calif. USA, www.graphpad.com).

Cc1cccc(C[C@H](NC(=O)Nc2cccc(Cl)c2)C(=O)N[C@H]2COC(=O)[C@@H]3C[C@@H](C)CN3C(=O)[C@H](C)NC(=O)[C@@H]3CCCCN3C(=O)[C@@H]3CCCN3C2=O)c1 [Compound 72, (S)-2-(3-(3-CHLOROPHENYL)UREIDO)-N-((2R,6S,8AS,14AS,20S,23AS)-2,6-DIMETHYL-5,8,14,19,23-PENTAOXOOCTADECAHYDRO-1H,5H,14H,19H-PYRIDO[2,1-I]DIPYRROLO[2,1-C:2′,1′-L][1]OXA[4,7,10,13]TETRAAZACYCLOHEXADECIN-20-YL)-3-(M-TOLYL)PROPANAMIDE]
Minimal Inhibitory Concentrations (μM) S. aureus ΔClpP (S. aureus ΔClpP): >20 µM | MIC (E. faecails): 10 µM (≈ 7.92 µg/mL) | MIC (MRSA NRS70): 2.5 µM (≈ 1.98 µg/mL) | MIC (S. aureus ATCC 29213): 2.5 µM (≈ 1.98 µg/mL) | MIC (S. aureus USA 300): 2.5 µM (≈ 1.98 µg/mL)

Cc1cccc(C[C@H](NC(=O)Nc2ccc(Cl)cc2Cl)C(=O)N[C@@H]2C(=O)N3C[C@H](O)C[C@H]3C(=O)N3CCCC[C@H]3C(=O)N[C@@H](C)C(=O)N3C[C@H](C)C[C@H]3C(=O)O[C@H]2C)c1 [Compound 78, (S)-2-(3-(2,4-DICHLOROPHENYL)UREIDO)-N-((2R,6S,8AS,14AS,16R,20S,21S,23AS)-16-HYDROXY-2,6,21-TRIMETHYL-5,8,14,19,23-PENTAOXOOCTADECAHYDRO-1H,5H,14H,19H-PYRIDO[2,1-I]DIPYRROLO[2,1-C:2′,1′-L][1]OXA[4,7,10,13]TETRAAZACYCLOHEXADECIN-20-YL)-3-(M-TOLYL)PROPANAMIDE] ({X7-CO}-[Phe(3-Me)][aThr][Hyp][Pip]A[Pro(4R-Me)]; ester 2-C)
EC50 (S. aureus ClpP (Sa-ClpP)): 330 ± 100 nM

Cc1cccc(C[C@H](NC(=O)Nc2ccc(F)cc2)C(=O)N[C@@H]2C(=O)N3C[C@H](O)C[C@H]3C(=O)N3CCCC[C@H]3C(=O)N[C@@H](C)C(=O)N3C[C@H](C)C[C@H]3C(=O)O[C@H]2C)c1 [Compound 79, (S)-2-(3-(4-FLUOROPHENYL)UREIDO)-N-((2R,6S,8AS,14AS,16R,20S,21S,23AS)-16-HYDROXY-2,6,21-TRIMETHYL-5,8,14,19,23-PENTAOXOOCTADECAHYDRO-1H,5H,14H,19H-PYRIDO[2,1-I]DIPYRROLO[2,1-C:2′,1′-L][1]OXA[4,7,10,13]TETRAAZACYCLOHEXADECIN-20-YL)-3-(M-TOLYL)PROPANAMIDE] ({NH(4-F-phenyl)-CO}-[Phe(3-Me)][aThr][Hyp][Pip]A[Pro(4R-Me)]; ester 2-C)
EC50 (S. aureus ClpP (Sa-ClpP)): 900 ± 600 nM

Cc1cccc(C[C@H](NC(=O)Nc2ccccc2F)C(=O)N[C@@H]2C(=O)N3C[C@H](O)C[C@H]3C(=O)N3CCCC[C@H]3C(=O)N[C@@H](C)C(=O)N3C[C@H](C)C[C@H]3C(=O)O[C@H]2C)c1 [Compound 80, (S)-2-(3-(2-FLUOROPHENYL)UREIDO)-N-((2R,6S,8AS,14AS,16R,20S,21S,23AS)-16-HYDROXY-2,6,21-TRIMETHYL-5,8,14,19,23-PENTAOXOOCTADECAHYDRO-1H,5H,14H,19H-PYRIDO[2,1-I]DIPYRROLO[2,1-C:2′,1′-L][1]OXA[4,7,10,13]TETRAAZACYCLOHEXADECIN-20-YL)-3-(M-TOLYL)PROPANAMIDE] ({NH(2-F-phenyl)-CO}-[Phe(3-Me)][aThr][Hyp][Pip]A[Pro(4R-Me)]; ester 2-C)
EC50 (S. aureus ClpP (Sa-ClpP)): 590 ± 400 nM

Reference: patent US10570179B2, “Substituted urea depsipeptide analogs as activators of the CLPP endopeptidase” (priority 2016, dated 2020)
